Here are results for 4 compounds from US8846861B2, “Peptide clearing agents” (Mologic Ltd, priority 2009, dated 2014).

The IC50 is the concentration that inhibits the measured activity by half. Read a high IC50 as lower potency. In general, Kd refers to a measure of binding affinity in units of concentration.

“Also recorded” adds a separate entry of the source. Like-named read-outs stand apart in the source and are kept apart here.

For test [1], the target named is CPG2 enzyme activity of ScFV anti CEA-CPG2. The experiment in a line: Spectrophotometric CPG2 enzyme inhibition assay (methotrexate hydrolysis, absorbance at 320 nm). The settings on record: for IC50: methotrexate substrate 60 μM, 37° C., pH 7.3; for inhibition of CPG2 activity (in words): spectrophotometric assay. The test is classed as biochemical, Psuedomonas. As to the method:
Enzyme Inhibition Assay Method Used for the Assessment of CP014 as an Inhibitor of CPG2 Activity
The effect that CP014 had on CPG2 activity was measured using a spectrophotometric assay. CP014 was dissolved in assay buffer (0.1 M Tris-HCl buffer at pH 7.3 containing 0.2 mM zinc chloride) to give a concentration of 40 mM. Various aliquots of this solution were added to cuvettes and assay buffer was added to adjust the volume of solution in each cuvette to 900 μL. 100 μL aliquots of 0.6 mM methotrexate solution in assay buffer were added to each cuvette to give a methotrexate substrate concentration of 0.06 mM (60 μM). The range of the concentration of CP014 in the cuvettes was 0-400 μM.
The substrate solutions in the cuvettes were heated to 37° C. in an oven. The cuvettes were then placed in turn in a spectrophotometer which was maintained at 37° C. using a Peltier. The assays were commenced by adding a 10 μL aliquot of fusion protein (ScFV anti CEA-CPG2) solution or CPG2 solution, followed by brief stirring. The hydrolysis of the methotrexate substrate was monitored by measuring the decrease in absorbance at 320 nm.
One unit (1 U) of CPG2 activity is defined as the amount of enzyme which catalyses the hydrolysis of 1 μmol of methotrexate per minute at 37° C. The molar extinction coefficient of methotrexate was taken as 8300 L mol^−1 cm^−1. For each assay a plot of absorbance versus time was created and a straight line was fitted to the data between 0 and 0.2 minutes. The slope of the straight line was then multiplied by minus 12 and the dilution factor of the ScFV anti CEA-CPG2/CPG2 solution to give the enzyme activity in U/mL.
A variation of the assay was to incubate various amounts of CP014 with ScFV anti CEA-CPG2 or CPG for a period of time at 4° C. prior to CPG2 assay. Following this incubation step, a 10 μL aliquot of each mixture was added to a cuvette that contained a 1 mL aliquot of 0.06 mM methotrexate in assay buffer at 37° C. After stirring the contents of the cuvette, the measurement of the decrease in absorbance and subsequent determination of enzyme activity were carried out as described above.
The effectiveness of CP014 in inhibiting CPG2 activity was expressed in terms of its IC50 value, i.e. the half maximal inhibitory concentration. Using GraphPad Prism 5 software, the IC50 value was determined by applying non-linear regression to a plot of enzyme activity versus the logarithm of the CP014 concentration.

In test [2] the test system is ScFv anti CEA-CPG2 fusion protein. As to the kind of experiment: Binding studies using Surface Plasmon Resonance (Biacore), peptide immobilised on CM5 chip. Also on record: species or system Psuedomonas. From the text:
Peptide clearing agents of the invention are exemplified herein displaying appropriate kinetics and affinity properties. Such kinetic and affinity properties may be measured using any suitable means. Kinetic and affinity parameters may be derived based upon binding studies using Surface Plasmon Resonance (SPR), which is a well known technique (and commercially available, for example from GE Healthcare—Biacore system). Data obtained using a suitable instrument may be analysed by appropriate software to automatically derive the relevant parameters. An appropriate binding model may be applied by the software to ensure the fit to the curves is as close as possible. A chi2 value of less than 0.2 may be considered an acceptable fit.
Binding Studies Using Surface Plasmon Resonance (SPR)
Peptides were coupled to a CM5 chip using EDC/NHS chemistry as recommended by the manufacturer (GE healthcare). Analytes were made up in HBS-P buffer (0.01 M HEPES pH 7.4, 0.15 M NaCl, 0.005% v/v Surfactant P20) and injected over the surface for 180 seconds at 5 μl/min followed by a dissociation time of 300 seconds. Residual binding was removed using two 10 second injections of regeneration buffer (10 mM CHAPS, 1 mM Guanidinium hydrochloride, 2 M NaCl). Response signals and baselines were checked for consistency throughout the experiment and flow rates of 15 and 75 μl/min were tested to confirm minimal effects due to mass transport.
FIGS. 6a and 6c each show four sensorgrams overlaid. These are the blank-subtracted real time responses from injections of 12.5, 25, 50 and 100 nM ScFVanti-CEA-CPG2 over the chip surface of immobilised CP014 peptide. The data has been fitted using two different algorithms supplied in the BiaCore software (“Biaevaluation”). The first, shown in FIG. 6a, was a 1:1 binding model (Langmuir) and the second, shown in FIG. 6c, was a 2-state reaction fit. Both fits align closely to the normalised sensorgrams. […] In addition, the Chi2 values are 0.154 and 0.0882 respectively and are within the acceptable range (<0.2) for these types of calculation. For both fits the dissociation constant (binding constant KD) was in close agreement at 5 nM and 9 nM, respectively.
A general note: Surface plasmon resonance follows binding to a sensor surface in real time, without labels.

The subject of test [3] is ScFV anti CEA-CPG2. As to the kind of experiment: Non-amplified Amplex Red assay for screening of potential CPG2 substrates. The test is classed as biochemical, Psuedomonas. The settings on record: for substrate potential for CPG2 (in words): Amplex Red fluorescence, CP014 12.5 and 100 μM, FIG. 10 substrate 12.5 μM. From the text: Non-Amplified Amplex Red Assay for the Screening of Potential CPG2 Substrates
It was established that CP014 is a potential inhibitor of CPG2 activity using a spectrophotometric assay. […] The so-called Amplex Red assay can be used to measure to measure L-glutamate in food samples and continuously monitor glutamate oxidase activity. By eliminating an amplification step in the assay procedure, it was possible to screen compounds as substrates for CPG2. In the modified assay, L-glutamic acid that has been cleaved from a substrate of CPG2 is oxidised by glutamate oxidase to produce α-ketoglutarate, ammonia and hydrogen peroxide. The hydrogen peroxide then reacts with 10-acetyl-3,7-dihydroxyphenoxazine (Amplex Red reagent) in a 1:1 stoichiometry in a reaction catalysed by horseradish peroxidise (HRP) to generate the highly fluorescent product, resorufin.
25 μM and 200 μM solutions of CP014 in assay buffer (0.1 M Tris-HCl buffer at […] containing 0.2 mM zinc chloride), and a 25 μM solution of folic acid in assay buffer were prepared. The Amplex Red reagent mixture was prepared by combining 2.5 μL 10 mM solution of Amplex Red reagent in DMSO, 5 μL HRP solution in assay buffer (100 U/mL), 32 μL L-glutamate oxidase solution in assay buffer (5 U/mL) and 460.5 μL assay buffer solution. ScFV anti CEA-CPG2 fusion protein was diluted appropriately using assay buffer.
A 50 μL aliquot of CP014 solution or 25 μM folic acid solution and a 50 μL aliquot of the Amplex Red reagent mixture were added to a well of a black microtitre plate. The plate was covered, then incubated at 37° C. for 10 minutes. The cover was removed and a 1 μL aliquot of ScFV anti CEA-CPG2 was added. After brief stirring, the plate was placed in a BMG Fluostar Omega plate reader and the fluorescence intensity was monitored over a 245 second period at 5 second intervals. The excitation filter wavelength was set at 544 nm and the emission filter wavelength was set at 590 nm.
When ScFV anti CEA-CPG2 was diluted to a concentration of approximately 2 U/mL, the slope value that was calculated for the 12.5 μM folic acid control assay was approximately 4.0.

In the case of `Nc1ccc2ccccc2c1C(=O)N[C@@H](CCC(=O)O)C(=O)O` [CP006, Amino-Naphthoic Acid (ANA)-Glutamate (Glu)], the values for the IC50 in test [1] and in test [1] (listed as formula I) were 88.5 µM and ~88.5 µM, respectively. Also, the “inhibition of CPG2 activity (in words)” value in test [1] is given as “is an inhibitor”. In test [2], the “affinity for the active site of CPG2 (in words)” value is “nanomolar affinity”. Moreover, the results for the “substrate potential for CPG2 (in words)” value in test [3] and in test [3] (listed as formula I) were “Poor Substrate; also recorded: low substrate activity” and “not acted upon as a substrate”, respectively.

Take `C[C@@H](NC(=O)[C@@H](N)CO[C@H]1OC(CO)[C@H](O)C(O)C1O)C(=O)Nc1ccc2ccccc2c1C(=O)NC(CCC(=O)O)C(=O)O` (stereo partly drawn) [CP014]: in test [1], the IC50 is 110 µM and the “inhibition of CPG2 activity (in words)” value is reported as “inhibits CPG2 activity; also recorded: is an inhibitor”. Further, in test [1] (listed as formula II), the IC50 is ~110 µM. The “affinity for the active site of CPG2 (in words)” value in test [2] is “nanomolar affinity”. In addition, in test [2] (1:1 Langmuir fit), the “KA (equilibrium association constant)” value came out at 1.98e+08 M⁻¹, the “Ka (association rate constant)” value is 226000 M⁻¹ s⁻¹ and the “Kd (dissociation rate constant)” value was found to be 0.00114 s⁻¹. The Kd in test [2] (1:1 Langmuir fit, read-out: KD (dissociation constant)) stood at 0.00504 µM. Besides, the Kd in test [2] (1:1 Langmuir fit, read-out: dissociation constant (binding constant KD)) is 0.005 µM. Moreover, in test [2] (2 state reaction fit), the “K (equilibrium association constant)” value was determined as 1.09e+08 M⁻¹, the ka1 was determined as 284000 M⁻¹ s⁻¹, the ka2 was 0.014 s⁻¹ and the kd1 amounted to 0.0258 s⁻¹. In addition, the kd2 in test [2] (2 state reaction fit) came to 0.00158 s⁻¹. Further, the Kd in test [2] (2 state reaction fit, read-out: dissociation constant (binding constant KD)) was 0.009 µM. In addition, the “slope of fluorescence intensity versus time, against negative control (in words)” value in test [3] (12.5 and 100 μM in the plate well) is “no greater than that of the negative control sample”. Besides, in test [3], the “substrate potential for CPG2 (in words)” value is listed as “not a substrate; also recorded: not altered or used as a substrate; also recorded: not turned over”. Moreover, the “substrate potential for CPG2 (in words)” value in test [3] (listed as formula II) is on record as “not acted upon as a substrate”.

`Nc1nc2ncc(CNc3ccc(C(=O)N[C@@H](CCC(=O)O)C(=O)O)cc3)nc2c(=O)[nH]1` [Folic acid, reference compound]: the “slope of fluorescence intensity versus time” value in test [3] (12.5 μM in well, ScFV anti CEA-CPG2 approximately 2 U/mL) is reported as “approximately 4.0”. For the same compound, the “substrate potential for CPG2 (in words)” value in test [3] is given as “positive controls”.

On to `CN(Cc1cnc2nc(N)nc(N)c2n1)c1ccc(C(=O)N[C@@H](CCC(=O)O)C(=O)O)cc1` [methotrexate, reference compound], for which the “substrate potential for CPG2 (in words)” value in test [3] is “positive controls”.
